Laboratory results taken from patent publication US12173018B2, “Penicillin-binding protein inhibitors” (priority 2018, dated 2024).
Where two headings read alike, the source gives them in different places.

Columns and labels:
E. coli PBP3 = E. coli PBP3 (Escherichia coli (strain K12), UniProt P0AD68); experiment: E. coli PBP3 Bocillin-FL fluorescence polarization competition binding assay
Procedure, shortened: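 Purified E. coli PBP (1.5 μM final) competed with inhibitor (0-1000 μM) for Bocillin-FL (0.1 μM final) in 50 mM Hepes pH 8.0, 300 mM NaCl, 5% glycerol. Fluorescence polarization (ex 490/em 520 nm) was read continuously for 60 min after Bocillin-FL addition. EC50 was the concentration that reduced Bocillin-FL binding by 50%.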

[1] = tested on: P. aeruginosa (ΔmexAB-oprM); experiment: microbe, parasite or virus in culture; format: cell-based; settings: Pseudomonas aeruginosa, read-out: MIC P. aeruginosa ΔmexAB-OprM
Procedure, shortened: (§1)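 Broth microdilution MICs followed CLSI methods in cation-supplemented Mueller-Hinton broth, with 2-fold serial compound dilutions. Log-phase cultures grown 3–5 h were added to a starting inoculum of 5×10^5 CFU/mL and incubated 16–20 h at 37 °C. The MIC was read visually as the lowest concentration with no growth.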

P. aeruginosa ATCC 35151 = experiment: microbe, parasite or virus in culture; format: cell-based; settings: Pseudomonas aeruginosa, ATCC35151; hyper-permeable P. aeruginosa ATCC 35151; read-out: MIC P. aeruginosa ATCC 35151
Procedure, shortened: as §1

P. aeruginosa PAO1 = experiment: Broth microdilution MIC, P. aeruginosa PAO1; format: cell-based; settings: Pseudomonas aeruginosa
Procedure, shortened: as §1

A. baumannii ATCC 19606 = experiment: Broth microdilution MIC, A. baumannii ATCC 19606; format: cell-based; settings: Acinetobacter baumannii
Procedure, shortened: as §1

[2] = P. aeruginosa PAO1, broth microdilution, read-out: MIC P. aeruginosa PAO1
[3] = ATCC19606, A. baumannii ATCC 19606, broth microdilution, read-out: MIC A. baumannii ATCC 19606
[4] = PAO1, read-out: MIC P. aeruginosa PAO1
[5] = ATCC19606, read-out: MIC A. baumannii ATCC 19606
[6] = fluorescence polarization competition binding with Bocillin-FL, read-out: E. coli K12 PBP3 Potency

Chain of E. coli PBP3 (P0AD68 whole entry): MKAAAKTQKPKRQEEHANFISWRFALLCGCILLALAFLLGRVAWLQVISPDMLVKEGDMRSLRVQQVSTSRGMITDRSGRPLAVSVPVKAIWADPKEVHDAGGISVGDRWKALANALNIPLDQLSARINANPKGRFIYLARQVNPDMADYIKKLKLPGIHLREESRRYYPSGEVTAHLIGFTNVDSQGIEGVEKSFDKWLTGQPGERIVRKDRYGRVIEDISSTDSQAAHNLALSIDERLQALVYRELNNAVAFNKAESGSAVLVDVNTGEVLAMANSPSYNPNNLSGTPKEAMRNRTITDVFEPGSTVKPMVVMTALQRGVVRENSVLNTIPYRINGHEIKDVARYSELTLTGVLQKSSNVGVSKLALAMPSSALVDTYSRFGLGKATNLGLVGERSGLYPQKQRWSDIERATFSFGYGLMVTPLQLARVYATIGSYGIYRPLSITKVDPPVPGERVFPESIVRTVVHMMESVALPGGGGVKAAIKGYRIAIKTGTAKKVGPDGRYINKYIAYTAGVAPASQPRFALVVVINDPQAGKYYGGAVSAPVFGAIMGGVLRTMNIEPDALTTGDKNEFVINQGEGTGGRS

Row | Structure (SMILES) | EC50 (E. coli PBP3) [µM] | MIC [1] [µg/mL] | MIC (P. aeruginosa ATCC 35151) [µg/mL] | MIC (P. aeruginosa PAO1; [2]) [µg/mL] | MIC (A. baumannii ATCC 19606; [3]) [µg/mL] | MIC (P. aeruginosa PAO1; [4]) [µg/mL] | MIC (A. baumannii ATCC 19606; [5]) [µg/mL] | EC50 (E. coli PBP3; [6]) [µM]
1 | CCN1CCN(C(=O)N[C@@H](C(=O)N[C@H]2Cc3cccc(C(=O)O)c3OB2O)c2ccc(O)c(O)c2Cl)C(=O)C1=O [Example 190, (R)-3-((R)-2-(2-chloro-3,4-dihydroxyphenyl)-2-(4-ethyl-2,3-dioxopiperazine-1-carboxamido)acetamido)-2-hydroxy-3,4-dihydro-2H-benzo[e][1,2]oxaborinine-8-carboxylic acid] | 30 to 500 | < 0.25 | < 0.25 | 0.5 to 1 | < 0.25 | – | – | –
2 | CCN1C[C@@H](C)N(C(=O)NC(C(=O)N[C@H]2Cc3cccc(C(=O)O)c3OB2O)c2ncc(O)cc2F)C(=O)C1=O (stereo partly drawn) [Example 191, (3R)-3-(2-((R)-4-ethyl-6-methyl-2,3-dioxopiperazine-1-carboxamido)-2-(3-fluoro-5-hydroxypyridin-2-yl)acetamido)-2-hydroxy-3,4-dihydro-2H-benzo[e][1,2]oxaborinine-8-carboxylic acid] | 30 to 500 | 32 to 64 | 2 to 4 | > 128 | > 128 | – | – | –
3 | CCN1CCN(C(=O)NC(C(=O)N[C@H]2Cc3ccc(F)c(C(=O)O)c3OB2O)c2ccc(O)c(O)c2Cl)C(O)C1=O (stereo partly drawn) [Example 194, (3R)-3-(2-(2-chloro-3,4-dihydroxyphenyl)-2-(4-ethyl-2-hydroxy-3-oxopiperazine-1-carboxamido)acetamido)-7-fluoro-2-hydroxy-3,4-dihydro-2H-benzo[e][1,2]oxaborinine-8-carboxylic acid] | 30 to 500 | 0.5 to 1 | < 0.25 | – | – | 8 to 16 | 0.5 to 1 | –
4 | NS(=O)(=O)c1ccc(C(NC(=O)N2CCN(CCF)C(=O)C2=O)C(=O)N[C@H]2Cc3cccc(C(=O)O)c3OB2O)c(F)c1 (stereo partly drawn) [Example 204, (3R)-3-(2-(2-fluoro-4-sulfamoylphenyl)-2-(4-(2-fluoroethyl)-2,3-dioxopiperazine-1-carboxamido)acetamido)-2-hydroxy-3,4-dihydro-2H-benzo[e][1,2]oxaborinine-8-carboxylic acid] | – | 8 to 16 | 0.5 to 1 | > 128 | > 128 | – | – | < 30
5 | CCN1CCN(C(=O)NC(C(=O)N[C@H]2Cc3cccc(C(=O)O)c3OB2O)c2nc(N)sc2F)C(=O)C1=O (stereo partly drawn) [Example 205, (3R)-3-(2-(2-amino-5-fluorothiazol-4-yl)-2-(4-ethyl-2,3-dioxopiperazine-1-carboxamido)acetamido)-2-hydroxy-3,4-dihydro-2H-benzo[e][1,2]oxaborinine-8-carboxylic acid] | – | 2 to 4 | < 0.25 | > 128 | 32 to 64 | – | – | < 30
6 | CCN1C[C@H](C)N(C(=O)NC(C(=O)N[C@H]2Cc3ccc(F)c(C(=O)O)c3OB2O)c2ccc(O)c(O)c2Cl)C(=O)C1=O (stereo partly drawn) [Example 206, (3R)-3-(2-(2-chloro-3,4-dihydroxyphenyl)-2-((S)-4-ethyl-6-methyl-2,3-dioxopiperazine-1-carboxamido)acetamido)-7-fluoro-2-hydroxy-3,4-dihydro-2H-benzo[e][1,2]oxaborinine-8-carboxylic acid] | – | < 0.25 | < 0.25 | 2 to 4 | < 0.25 | – | – | < 30
7 | CCN1C[C@H](C)N(C(=O)NC(C(=O)N[C@H]2Cc3ccc(F)c(C(=O)O)c3OB2O)c2ncc(O)cc2F)C(=O)C1=O (stereo partly drawn) [Example 208, (3R)-3-(2-((S)-4-ethyl-6-methyl-2,3-dioxopiperazine-1-carboxamido)-2-(3-fluoro-5-hydroxypyridin-2-yl)acetamido)-7-fluoro-2-hydroxy-3,4-dihydro-2H-benzo[e][1,2]oxaborinine-8-carboxylic acid] | – | 32 to 64 | < 0.25 | > 128 | > 128 | – | – | < 30
8 | CCN1CCN(C(=O)NC(C(=O)N[C@H]2Cc3cccc(C(=O)O)c3OB2O)c2ccc(S(N)(=O)=O)c(F)c2)C(=O)C1=O (stereo partly drawn) [Example 210, (3R)-3-(2-(4-ethyl-2,3-dioxopiperazine-1-carboxamido)-2-(3-fluoro-4-sulfamoylphenyl)acetamido)-2-hydroxy-3,4-dihydro-2H-benzo[e][1,2]oxaborinine-8-carboxylic acid] | 30 to 500 | 2 to 4 | 0.5 to 1 | > 128 | > 128 | – | – | –
9 | CCN1CCN(C(=O)NC(C(=O)N[C@H]2Cc3cccc(C(=O)O)c3OB2O)c2ccc(C(=O)O)cc2)C(=O)C1=O (stereo partly drawn) [Example 212, (3R)-3-(2-(4-carboxyphenyl)-2-(4-ethyl-2,3-dioxopiperazine-1-carboxamido)acetamido)-2-hydroxy-3,4-dihydro-2H-benzo[e][1,2]oxaborinine-8-carboxylic acid] | – | 8 to 16 | < 0.25 | – | – | 32 to 64 | > 128 | < 30
10 | O=C(O)c1cccc2c1OB(O)[C@@H](NC(=O)C(NC(=O)N1CCN(CCF)C(=O)C1=O)c1ccc(S(=O)(=O)NCCO)cc1)C2 (stereo partly drawn) [Example 213, (3R)-3-(2-(4-(2-fluoroethyl)-2,3-dioxopiperazine-1-carboxamido)-2-(4-(N-(2-hydroxyethyl)sulfamoyl)phenyl)acetamido)-2-hydroxy-3,4-dihydro-2H-benzo[e][1,2]oxaborinine-8-carboxylic acid] | 30 to 500 | 8 to 16 | 2 to 4 | > 128 | > 128 | – | – | –
11 | CCN1CCN(C(=O)NC(C(=O)N[C@H]2Cc3ccc(Cl)c(C(=O)O)c3OB2O)c2ncc(O)cc2F)C(=O)C1=O (stereo partly drawn) [Example 216, (3R)-7-chloro-3-(2-(4-ethyl-2,3-dioxopiperazine-1-carboxamido)-2-(3-fluoro-5-hydroxypyridin-2-yl)acetamido)-2-hydroxy-3,4-dihydro-2H-benzo[e][1,2]oxaborinine-8-carboxylic acid] | – | 32 to 64 | < 0.25 | > 128 | > 128 | – | – | < 30
12 | CCN1CCN(C(=O)NC(C(=O)N[C@H]2Cc3ccc(Cl)c(C(=O)O)c3OB2O)c2ccc(O)c(O)c2Cl)C(=O)C1=O (stereo partly drawn) [Example 217, (3R)-7-chloro-3-(2-(2-chloro-3,4-dihydroxyphenyl)-2-(4-ethyl-2,3-dioxopiperazine-1-carboxamido)acetamido)-2-hydroxy-3,4-dihydro-2H-benzo[e][1,2]oxaborinine-8-carboxylic acid] | 30 to 500 | < 0.25 | < 0.25 | 2 to 4 | 0.5 to 1 | – | – | –
13 | CC[C@H]1CN(CC)C(=O)C(=O)N1C(=O)NC(C(=O)N[C@H]1Cc2cccc(C(=O)O)c2OB1O)c1ncc(O)cc1F (stereo partly drawn) [Example 218, (3R)-3-(2-((S)-4,6-diethyl-2,3-dioxopiperazine-1-carboxamido)-2-(3-fluoro-5-hydroxypyridin-2-yl)acetamido)-2-hydroxy-3,4-dihydro-2H-benzo[e][1,2]oxaborinine-8-carboxylic acid] | – | 32 to 64 | 2 to 4 | > 128 | > 128 | – | – | < 30
14 | C[C@H]1CN(CCO)C(=O)C(=O)N1C(=O)NC(C(=O)N[C@H]1Cc2cccc(C(=O)O)c2OB1O)c1ccc(O)c(O)c1Cl (stereo partly drawn) [Example 224, (3R)-3-(2-(2-chloro-3,4-dihydroxyphenyl)-2-((S)-4-(2-hydroxyethyl)-6-methyl-2,3-dioxopiperazine-1-carboxamido)acetamido)-2-hydroxy-3,4-dihydro-2H-benzo[e][1,2]oxaborinine-8-carboxylic acid] | 30 to 500 | 0.5 to 1 | < 0.25 | 8 to 16 | < 0.25 | – | – | –
15 | NCCN1CCN(C(=O)N[C@@H](C(=O)N[C@H]2Cc3cccc(C(=O)O)c3OB2O)c2ncc(O)cc2F)C(=O)C1=O [Example 225, (R)-3-((R)-2-(4-(2-aminoethyl)-2,3-dioxopiperazine-1-carboxamido)-2-(3-fluoro-5-hydroxypyridin-2-yl)acetamido)-2-hydroxy-3,4-dihydro-2H-benzo[e][1,2]oxaborinine-8-carboxylic acid] | – | 2 to 4 | 0.5 to 1 | > 128 | > 128 | – | – | < 30
16 | NCCN1CCN(C(=O)N[C@@H](C(=O)N[C@H]2Cc3ccc(F)c(C(=O)O)c3OB2O)c2ccc(O)c(O)c2Cl)C(=O)C1=O [Example 227, (R)-3-((R)-2-(4-(2-aminoethyl)-2,3-dioxopiperazine-1-carboxamido)-2-(2-chloro-3,4-dihydroxyphenyl)acetamido)-7-fluoro-2-hydroxy-3,4-dihydro-2H-benzo[e][1,2]oxaborinine-8-carboxylic acid] | 30 to 500 | < 0.25 | < 0.25 | < 0.25 | < 0.25 | – | – | –
17 | CC(=O)NCCN1CCN(C(=O)NC(C(=O)N[C@H]2Cc3cccc(C(=O)O)c3OB2O)c2ccc(O)c(O)c2Cl)C(=O)C1=O (stereo partly drawn) [Example 228, (3R)-3-(2-(4-(2-acetamidoethyl)-2,3-dioxopiperazine-1-carboxamido)-2-(2-chloro-3,4-dihydroxyphenyl)acetamido)-2-hydroxy-3,4-dihydro-2H-benzo[e][1,2]oxaborinine-8-carboxylic acid] | 30 to 500 | < 0.25 | < 0.25 | 0.5 to 1 | 0.5 to 1 | – | – | –
